Measured values reported in PMC11602988 (The Journal of Biological Chemistry, 2024).
Where a chain is given by its changes, count along the chain named. Read-outs that look alike come from different tables or passages of the source.

Legend:
OCT1 Phe244Ala variant = molecular target: T1, OCT1 Phe244Ala variant (Homo sapiens, UniProt O15245, F244A); experiment: Uptake screening (transport ratio over empty vector), HEK293 cells overexpressing OCT1 Phe244Ala variant; assay type: cell-based; set-up: expressed in transfected cells;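 further: stably transfected HEK293 cells, intracellular substrate quantified by HPLC-tandem mass spectrometry in cell lysates, uptake in HBSS+ buffer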
T1 sequence (O15245 1-554 F244A): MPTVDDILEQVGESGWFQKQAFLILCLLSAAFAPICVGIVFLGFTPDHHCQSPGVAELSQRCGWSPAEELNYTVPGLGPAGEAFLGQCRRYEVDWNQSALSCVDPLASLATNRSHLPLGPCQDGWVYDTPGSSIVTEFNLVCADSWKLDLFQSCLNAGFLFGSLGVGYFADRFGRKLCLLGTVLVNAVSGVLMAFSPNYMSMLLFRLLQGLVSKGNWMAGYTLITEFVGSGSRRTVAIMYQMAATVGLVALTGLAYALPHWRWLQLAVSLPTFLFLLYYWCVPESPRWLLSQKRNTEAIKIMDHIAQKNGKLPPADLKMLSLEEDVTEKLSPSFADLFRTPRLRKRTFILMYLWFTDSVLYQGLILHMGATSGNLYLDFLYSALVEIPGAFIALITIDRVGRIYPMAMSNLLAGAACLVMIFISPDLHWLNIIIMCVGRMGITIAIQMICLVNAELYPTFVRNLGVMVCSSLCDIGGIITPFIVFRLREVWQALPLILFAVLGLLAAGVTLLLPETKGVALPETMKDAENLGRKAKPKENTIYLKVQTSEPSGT

OCT1 WT = molecular target: T2, OCT1 WT (Homo sapiens, UniProt O15245); experiment: Uptake screening (transport ratio over empty vector), HEK293 cells overexpressing OCT1 WT; assay type: cell-based; set-up: expressed in transfected cells;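 further: intracellular substrate levels quantified by HPLC–tandem mass spectrometry after uptake in HBSS+ buffer at 37 °C, stable Flp-In HEK293 lines, fold change versus empty vector–transfected cells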
T2 sequence (O15245 1-554): T1 sequence (O15245 1-554 F244A) with A244F
Procedure: All experiments were carried out using transporter-overexpressing HEK293 cells. […] Cells were cultivated in Dulbecco’s Modified Eagle’s medium supplemented with 10% fetal calf serum, 100 U/ml penicillin, and 100 μg/ml streptomycin. Cells were passaged twice a week and kept in culture for no longer than 30 passages.
For uptake studies, 300,000 HEK293 cells were plated in each well of 24-well plates precoated with poly-D-lysine 48 prior to the experiment. On the day of the experiment, cells were washed once with prewarmed to 37 °C HBSS+ (Hank’s balanced salt solution supplemented with 10 mM Hepes, both Sigma-Aldrich). […] Uptake was stopped by adding ice-cold HBSS+ and cells were washed twice with ice-cold buffer before cell lysis was done using 80% acetonitrile containing an appropriate internal standard for eventual mass spectrometry. Relative quantification was done by comparison of transporter-overexpressing cells to empty vector–transfected controls. For uptake kinetic experiments, cells were incubated with increasing concentrations of substrate dissolved in HBSS+. Absolute quantification was done later by comparison to a standard curve in lysis buffer with known concentration.
Intracellular drug concentrations were detected and quantified by HPLC coupled to mass spectrometry. […] Substance-specific conditions were used to adjust the retention times of the analytes.
Transport ratios were determined as relative fold-increase of the uptake in transporter-overexpressing cells over empty vector–transfected control cells. For transport kinetic experiments, absolute substrate quantification was done by signal comparison to a standard curve with known concentrations. Net uptake was then determined by subtracting the uptake into empty vector–transfected cells from transporter-overexpressing cells. […] Vmax defines the maximum transport velocity, Km refers to the substrate concentration required to reach half vmax. The intrinsic clearance Clint is the ratio of vmax over Km.

[1] = Phe244Ala uptake relative to WT
[2] = uptake ratio over empty vector, HEK293 cells overexpressing OCT1 Phe244Ala
[3] = uptake ratio over empty vector, HEK293 cells overexpressing OCT1 WT
[4] = Phe244Ala uptake relative to OCT1 WT
[5] = uptake ratio of OCT1 Phe244Ala-overexpressing HEK293 cells over empty vector
[6] = uptake ratio of OCT1 WT-overexpressing HEK293 cells over empty vector

Row | SMILES | relative_Phe244Ala_uptake_in% (OCT1 Phe244Ala variant; [1]) | Mean_transport_ratio_Phe244Ala (OCT1 Phe244Ala variant; [2]) | Mean_transport_ratio_WT (OCT1 WT; [3]) | relative_Phe244Ala_uptake_in% (OCT1 Phe244Ala variant; [4]) | other results
1 | CC[N+](C)(C)c1cccc(O)c1 [Edrophonium] | 101.017% | 26.201 | 25.947 |  | 
2 | CC(C)NCC(O)c1ccc(O)c(O)c1 (stereo not drawn) [Isoproterenol] |  |  |  | 28.983% | Mean_transport_ratio_Phe244Ala (OCT1 Phe244Ala variant; [5]): 2.519; Mean_transport_ratio_WT (OCT1 WT; [6]): 6.241
3 | N=C(N)NC(=O)Cc1c(Cl)cccc1Cl [Guanfacine] |  |  |  | 86.485% | Mean_transport_ratio_Phe244Ala (OCT1 Phe244Ala variant; [5]): 2.966; Mean_transport_ratio_WT (OCT1 WT; [6]): 3.273
4 | CNC[C@H](O)c1cccc(O)c1 [Phenylephrine] |  | 3.61 | 9.854 | 29.477% | 
5 | CCNCC(O)c1cccc(O)c1 (stereo not drawn) [Etilefrine] | 39.917% | 3.319 | 6.81 |  | 
6 | CC[N+](CC)(CC)CC(=O)Nc1c(C)cccc1C [N-Ethyllidocaine] | 129.074% | 53.323 | 41.537 |  | 
7 | c1c2c(cc3c1OCO3)-c1cc3ccc4c(c3c[n+]1CC2)OCO4 [Coptisine] | 90.627% | 10.972 | 12.003 |  | 
8 | CC(C)(C)NCC(O)COc1cccc2c1CC(O)C(O)C2 (stereo not drawn) [Nadolol] |  |  |  | 142.415% | Mean_transport_ratio_Phe244Ala (OCT1 Phe244Ala variant; [5]): 13.705; Mean_transport_ratio_WT (OCT1 WT; [6]): 9.921
9 | CNCc1ccc(-c2[nH]c3cc(F)cc4c3c2CCNC4=O)cc1 [Rucaparib] |  | 2.644 | 2.018 | 161.437% | 
10 | NCC(O)c1ccccc1 (stereo not drawn) [Bisnorephedrine] | 116.872% | 1.345 | 1.295 |  | 
11 | CC(C)(C)NCC(O)c1ccc(O)c(CO)n1 (stereo not drawn) [Pirbuterol] |  | 54.212 | 68.047 | 79.364% | 
12 | CNC1(C)C2CCC(C2)C1(C)C (stereo not drawn) [Mecamylamine] |  |  |  | -72.241% | Mean_transport_ratio_Phe244Ala (OCT1 Phe244Ala variant; [5]): 0.581; Mean_transport_ratio_WT (OCT1 WT; [6]): 1.579
13 | COc1ccc2[nH]cc(CCN)c2c1 [5-Methoxytryptamine] |  |  |  |  | Mean_transport_ratio_Phe244Ala (OCT1 Phe244Ala variant): 1.602; relative_Phe244Ala_uptake_in% (OCT1 Phe244Ala variant): 22.030%; Mean_transport_ratio_WT (OCT1 WT): 3.73
14 | Oc1ccc(CC2NCCc3cc(O)c(O)cc32)cc1 (stereo not drawn) [Higenamine] |  |  |  | 44.661% | Mean_transport_ratio_Phe244Ala (OCT1 Phe244Ala variant; [5]): 13.029; Mean_transport_ratio_WT (OCT1 WT; [6]): 27.934
15 | Nc1ccncc1N [Amifampridine] | 7.302% | 1.269 | 4.689 |  | 
16 | CCC(NC(C)C)C(O)c1ccc(O)c(O)c1 (stereo not drawn) [Isoetharine] |  |  |  | 103.988% | Mean_transport_ratio_Phe244Ala (OCT1 Phe244Ala variant; [5]): 16.355; Mean_transport_ratio_WT (OCT1 WT; [6]): 15.766
17 | CNCCc1c[nH]c2ccc(O)cc12 [N-Methylserotonin] |  |  |  | 24.160% | Mean_transport_ratio_Phe244Ala (OCT1 Phe244Ala variant; [5]): 8.275; Mean_transport_ratio_WT (OCT1 WT; [6]): 31.114
18 | Cc1ncccc1C(N)=O [Methylnicotinamide] |  |  |  | -6.232% | Mean_transport_ratio_Phe244Ala (OCT1 Phe244Ala variant; [5]): 0.82; Mean_transport_ratio_WT (OCT1 WT; [6]): 3.894
19 | CN(C)CCc1c[nH]c2ccc(C[C@H]3COC(=O)N3)cc12 [(S)-Zolmitriptan] |  |  |  |  | Mean_transport_ratio_Phe244Ala (OCT1 Phe244Ala variant): 8.091; relative_Phe244Ala_uptake_in% (OCT1 Phe244Ala variant): 24.350%; Mean_transport_ratio_WT (OCT1 WT): 30.121
20 | COc1ccc(CC(C)(C)NC[C@H](O)c2cc(O)cc3c2OCC(=O)N3)cc1 [Olodaterol] |  | 7.992 | 6.02 | 139.279% | 
21 | N=C(N)N1CCc2ccccc2C1 [Debrisoquin] | 108.342% | 20.768 | 19.246 |  | 
22 | CN1[C@@H]2CC[C@H]1C[C@@H](OC(=O)c1c[nH]c3ccccc13)C2 [Tropisetron] |  | 1.568 | 2.206 | 47.074% | 

Row | SMILES | relative_Phe244Ala_uptake_in% (OCT1 Phe244Ala variant; [1]) | Mean_transport_ratio_Phe244Ala (OCT1 Phe244Ala variant; [2]) | Mean_transport_ratio_WT (OCT1 WT; [3]) | relative_Phe244Ala_uptake_in% (OCT1 Phe244Ala variant; [4]) | other results
23 | CC(NCCc1ccc(O)cc1)C(O)c1ccc(O)cc1 (stereo not drawn) [Ritodrine] |  | 12.33 | 8.916 | 143.135% | 
24 | C[N+]1(C)[C@@H]2CC(OC(=O)C(O)(c3cccs3)c3cccs3)C[C@H]1[C@@H]1O[C@@H]12 (stereo partly drawn) [Thiotropium] |  |  |  |  | Mean_transport_ratio_Phe244Ala (OCT1 Phe244Ala variant): 35.339; relative_Phe244Ala_uptake_in% (OCT1 Phe244Ala variant): 101.472%; Mean_transport_ratio_WT (OCT1 WT): 34.841
25 | O=C(O[C@H]1C[N+]2(CCCOc3ccccc3)CCC1CC2)C(O)(c1cccs1)c1cccs1 [(R)-Aclidinium] | 126.640% | 6.14 | 5.059 |  | 
26 | COc1cc(CCN)ccc1O [3-Methoxy-p-tyramine] |  |  |  | 27.805% | Mean_transport_ratio_Phe244Ala (OCT1 Phe244Ala variant; [5]): 1.829; Mean_transport_ratio_WT (OCT1 WT; [6]): 3.981
27 | CCCCNC(=N)NC(=N)N [Buformin] | 42.469% | 14.865 | 33.648 |  | 
28 | COc1cc2c(cc1OC)[C@H](C)NCC2 [Salsolidine] |  | 1.211 | 1.647 | 32.677% | 
29 | CC(N)CCCC(C)(C)O (stereo not drawn) [Heptaminol] |  |  |  | 20.840% | Mean_transport_ratio_Phe244Ala (OCT1 Phe244Ala variant; [5]): 2.658; Mean_transport_ratio_WT (OCT1 WT; [6]): 8.957
30 | NCCc1cccc(O)c1 [m-Tyramine] |  | 1.687 | 6.001 | 13.730% | 
31 | CNCC(O)c1ccc(O)cc1 (stereo not drawn) [Synephrine] |  | 4.516 | 8.37 | 47.706% | 
32 | Cc1cc(N)c(OC(C)C)cc1C1CCNCC1 [1380575-45-0] | 149.293% | 6.442 | 4.645 |  | 
33 | CN(C)CCc1c[nH]c2ccc(C[C@@H]3COC(=O)N3)cc12 [(R)-Zolmitriptan] |  |  |  |  | Mean_transport_ratio_Phe244Ala (OCT1 Phe244Ala variant): 13.515; relative_Phe244Ala_uptake_in% (OCT1 Phe244Ala variant): 37.478%; Mean_transport_ratio_WT (OCT1 WT): 34.392
34 | Cc1cc(C(C)(C)C)cc(C)c1CC1=NCCN1 [Xylometazoline] |  | 4.046 | 2.256 | 242.447% | 
35 | [H]/N=C(\N/C(=N/[H])Nc1ccc(Cl)cc1)NC(C)C [Proguanil] |  | 10.221 | 9.904 | 103.560% | 
36 | CC(C)[N+](C)(CCOC(=O)C1c2ccccc2Oc2ccccc21)C(C)C [Propanthelinbromid] |  | 14.937 | 8.263 | 191.888% | 
37 | NCc1ccc(O)cc1 [Hydroxybenzylamin] |  |  |  | 22.795% | Mean_transport_ratio_Phe244Ala (OCT1 Phe244Ala variant; [5]): 1.294; Mean_transport_ratio_WT (OCT1 WT; [6]): 2.288
38 | Nc1nc(=O)n([C@@H]2CS[C@H](CO)O2)cc1F [Emtricitabine] | 51.794% | 2.01 | 2.95 |  | 
39 | CC[N+](CC)(CC)Cc1ccccc1 [Benzyltriethylammonium] | 82.289% | 46.399 | 56.17 |  | 
40 | CN(C)CC(c1ccc(O)cc1)C1(O)CCCCC1 (stereo not drawn) [O-Desmethylvenlafaxine] | 159.771% | 3.092 | 2.309 |  | 
41 | NC(N)=NCc1cccc(I)c1 [Metaiodobenzylguanidine] |  |  |  | 96.674% | Mean_transport_ratio_Phe244Ala (OCT1 Phe244Ala variant; [5]): 11.193; Mean_transport_ratio_WT (OCT1 WT; [6]): 11.544
42 | OC(c1ccccc1)(c1ccccc1)C12CC[N+](CCOCc3ccccc3)(CC1)CC2 [Umeclidinium] |  | 7.391 | 6.027 | 127.145% | 
43 | C[N+]12CCC(CC1)C(OC(=O)C(O)(c1ccccc1)c1ccccc1)C2 (stereo not drawn) [Clidinium] | 112.238% | 34.518 | 30.863 |  | 
